Results on twelve compounds are retold here after patent US4213994A, “Imidazolyl-(2)-carbinols having hypolipidemic action and process for preparing them” (Hoechst Aktiengesellschaft, priority 1971, dated 1980).

Like-named read-outs stand apart in the source and are kept apart here. Some results are limits rather than exact numbers.

Series [1] is described as follows: acute toxicity, LD50 determined on the mouse upon oral administration. The conditions noted are these: in vivo. From the text: While having an extremely low acute toxicity (cf. LD50 -values in Table I), the imidazolyl-(2)-carbinols reduce the lipid level in the serum and reduce artificially produced hyperlipidemia.
The values in brackets of the first column designate the LD50values
(§1) in g/kg, determined on the mouse upon oral administration. The values

The test system of a further series is serum lipid level. As to the kind of experiment: Standard test on a male rat with normal serum lipid level (hypolipidemic action, 8 peroral administrations). The series is classed as in vivo. The following applies: for change in vivo at 100 mg/kg / change in vivo at 30 mg/kg / change in vivo at 10 mg/kg: Rattus norvegicus, po, 192 h. As for the experimental part: 1. Standard test on a male rat with normal serum lipid level
The period of time used for the experiment was 8 days. Administration was effected once daily with the aid of an oesophageal sound with doses of 100, 30 and 10 mg/kg, respectively. In general, blood was withdrawn prior to and after the treatment and the concentration of cholesterin was determined in the serum according to the method described by Lauber and Richterich and that of triglycerides according to the method described by Eggstein and Kreutz.
as §1
before the oblique stroke of the other columns denote the percentual
change of the posterior value (value after the treatment) referred to the
anterior value (starting value before the treatment) of the group of
preparations, the anterior value being 100%; the values behind the obliqu
stroke indicate the percentual change of the posterior value of the group
treated with reference to the posterior value (= 100%) of a placebo group

The next series deals with triton-hyperlipidemia. As to the kind of experiment: Triton-Hyperlipidemia of the male rat (inhibition of triton-hyperlipidemia). The series is classed as in vivo. The following applies: 4-days pre-treatment; for Inhibition of triton-hyperlipidemia, Serum-cholesterin / Inhibition of triton-hyperlipidemia, Serum-triglyceride: 300 mg/kg Triton WR 1339 i.p., Triton control = 100%. As for the experimental part:
2. Triton-Hyperlipidemia of the male rat
The influence of a 4-days pre-treatment with the compound of Example 1 on the formation of hyperlipidemia produced by i.p. application of 300 mg/kg of Triton ® WR 1339 was tested in comparison to a control group (=100%) which had only been treated with Triton.

Series [2] relates to dietetic hypercholesterinemia. The series can be described thus: Dietetic hypercholesterinemia of the male rat (inhibition of dietetic hypercholesterinemia). The following applies: 100 mg/kg p.o. once daily. It is filed as in vivo. As for the experimental part:
3. Dietetic hypercholesterinemia of the male rat
Hypercholesterinemia was produced by the addition of 2% of cholesterin and 20% of coconut fat (Palmin) to the normal fodder. The rise of the cholesterin level was determined by comparison with a control group (=100%) which had been given normal fodder only. (Line 1 in Table III). The animals of the preparation group obtained at the same time of the begin of the diet daily once 100 mg/kg p.o. of the compound of Example 1. […]

The nature of series [3]: solubility in the usual solvents. It is filed as physicochemical.
Setting [4] is: 100 mg/kg/day p.o., 8 administrations, value before the oblique stroke (anterior value = 100%), read-out: % change of Serum-Cholesterin, after treatment vs starting value before treatment.
The mark [5] stands for this setting: 100 mg/kg/day p.o., 8 administrations, value before the oblique stroke (anterior value = 100%), read-out: % change of Serum-triglycerides, after treatment vs starting value before treatment.
The mark [6] stands for this setting: 100 mg/kg/day p.o., 8 administrations, value behind the oblique stroke (placebo posterior value = 100%), read-out: % change of Serum-Cholesterin, treated group vs placebo group.
Where [7] appears, read: 100 mg/kg/day p.o., 8 administrations, value behind the oblique stroke (placebo posterior value = 100%), read-out: % change of Serum-triglycerides, treated group vs placebo group.
The mark [8] stands for this setting: read-out: % change of Serum-Cholesterin, after treatment vs starting value before treatment.
Where [9] appears, read: read-out: % change of Serum-triglycerides, after treatment vs starting value before treatment.
Where [10] appears, read: read-out: % change of Serum-triglycerides, treated group vs placebo group.
The mark [11] stands for this setting: 30 mg/kg/day p.o., 8 administrations, value before the oblique stroke (anterior value = 100%), read-out: % change of Serum-Cholesterin, after treatment vs starting value before treatment.
The mark [12] stands for this setting: 30 mg/kg/day p.o., 8 administrations, value before the oblique stroke (anterior value = 100%), read-out: % change of Serum-triglycerides, after treatment vs starting value before treatment.
Where [13] appears, read: 30 mg/kg/day p.o., 8 administrations, value behind the oblique stroke (placebo posterior value = 100%), read-out: % change of Serum-triglycerides, treated group vs placebo group.
Setting [14] is: 30 mg/kg/day p.o., 8 administrations, value behind the oblique stroke (placebo posterior value = 100%), read-out: % change of Serum-Cholesterin, treated group vs placebo group.
Setting [15] is: 10 mg/kg/day p.o., 8 administrations.

For orientation: LD50 means the dose expected to kill half of the subjects tested. Read a high LD50 as lower toxicity. For the compound `Cn1c(C(O)c2nccn2Cc2ccccc2)nc2ccccc21` (stereo not drawn) [Example 9, [1-Benzylimidazolyl-(2)]-[1-methylbenzimidazolyl-(2)]-carbinol], the LD50 in series [1] is > 4000 mg/kg. Also, the change in vivo at 100 mg/kg with serum lipid level (setting [4]) was -21%; with serum lipid level (setting [5]), -40%; in the series on serum lipid level (setting [6]), -11%; with serum lipid level (setting [7]), -24%.
For the compound `CC(C)n1ccnc1C(O)C(Cl)(Cl)Cl` (stereo not drawn) [Example 3, 1-[1-Isopropylimidazolyl-(2)]-2,2,2-trichloroethanol], in series [1], the LD50 was > 4000 mg/kg. Further, the results for the change in vivo at 30 mg/kg with serum lipid level (setting [8]), in the series with serum lipid level (setting [9]) and in the series on serum lipid level (setting [10]) were -16%, -21% and -6%, respectively. Moreover, the change in vivo at 100 mg/kg with serum lipid level (setting [8]) is -6%; in the series with serum lipid level (read-out: % change of Serum-Cholesterin, treated group vs placebo group), -18%; in the series with serum lipid level (setting [9]), -57%; in the series on serum lipid level (setting [10]), -30%.
Regarding `COc1ccc(C(O)c2nccn2-c2ccccc2)cc1OC` (stereo not drawn) [Example 11, (3,4-Dimethoxy-phenyl)-[1-phenylimidazolyl-(2)]-carbinol], the LD50 in series [1] was > 4000 mg/kg. Besides, the change in vivo at 100 mg/kg with serum lipid level (setting [4]) is -24%; in the series with serum lipid level (setting [5]), -32%; in the series on serum lipid level (setting [6]), -3%; in the series with serum lipid level (setting [7]) it was -21%.
Take `CC(O)c1nccn1Cc1ccccc1` (stereo not drawn) [Example 2, 1-[1-benzylimidazolyl-(2)]-ethanol]: the LD50 in series [1] came out at 1120 mg/kg. The change in vivo at 100 mg/kg is -24% with serum lipid level (setting [4]), -3% in the series with serum lipid level (setting [6]) and -4% in the series with serum lipid level (setting [7]).
Regarding `Cn1c(C(O)(c2ccccc2)c2ccc(Cl)cc2Cl)nc2ccccc21` (stereo not drawn) [Example 6, Phenyl-(2,4-dichlorophenyl)-[1-methylbenzimidazolyl-(2)]-carbinol], the 50% lethal dose (LD50) in series [1] is > 4000 mg/kg. Besides, the change in vivo at 30 mg/kg is -20% in the series on serum lipid level (setting [11]), -19% in the series on serum lipid level (setting [12]) and -29% in the series on serum lipid level (setting [13]). For the same compound, the change in vivo at 100 mg/kg in the series with serum lipid level (setting [4]) was -12%; in the series with serum lipid level (setting [5]), -46%; in the series with serum lipid level (setting [6]), -25%; with serum lipid level (setting [7]), -35%.
As to `OC1(c2nccn2Cc2ccccc2)c2ccccc2-c2ccccc21` [Example 4, 9-[1-Benzylimidazolyl-(2)]-fluorene-9-ol], the median lethal dose (LD50) in series [1] was > 4000 mg/kg. For the same compound, the change in vivo at 30 mg/kg in the series with serum lipid level (setting [11]) was -11%; with serum lipid level (setting [12]) it was -25%. In addition, the change in vivo at 100 mg/kg is -16% in the series with serum lipid level (setting [4]), -48% with serum lipid level (setting [5]), -21% in the series with serum lipid level (setting [6]) and -37% in the series with serum lipid level (setting [7]).
For `OC(c1ccccc1)(c1nccn1Cc1ccccc1)c1nccn1Cc1ccccc1` [Example 1, Bis-[1-benzylimidazolyl-(2)]-phenyl-carbinole], in series [1], the LD50 was > 4000 mg/kg. Besides, the change in vivo at 10 mg/kg with serum lipid level (10 mg/kg/day p.o., 8 administrations, value before the oblique stroke (anterior value = 100%), read-out: % change of Serum-Cholesterin, after treatment vs starting value before treatment) was -10%; in the series on serum lipid level (10 mg/kg/day p.o., 8 administrations, value behind the oblique stroke (placebo posterior value = 100%), read-out: % change of Serum-Cholesterin, treated group vs placebo group) it was -12%; in the series on serum lipid level (10 mg/kg/day p.o., 8 administrations, value behind the oblique stroke (placebo posterior value = 100%), read-out: % change of Serum-triglycerides, treated group vs placebo group), -13%. In addition, the change in vivo at 30 mg/kg is -33% with serum lipid level (setting [11]), -25% in the series on serum lipid level (setting [12]), -10% in the series on serum lipid level (setting [14]) and -10% in the series on serum lipid level (setting [13]). Also, the “Inhibition of triton-hyperlipidemia, Serum-cholesterin” value in the series on triton-hyperlipidemia (10 mg/kg/day p.o.) was -31%; with triton-hyperlipidemia (100 mg/kg/day p.o.) it was -28%. The results for the “Inhibition of triton-hyperlipidemia, Serum-triglyceride” value in the series with triton-hyperlipidemia (10 mg/kg/day p.o.) and with triton-hyperlipidemia (100 mg/kg/day p.o.) were -40% and -35%, respectively. Moreover, the “% change of the total cholesterin content in the serum, inhibition due to preparation (diet = 100%)” value in series [2] (after 8 days) is on record as -23%; in series [2] (after 20 days) it was -19%; in series [2] (after 33 days), -9%.
Turning to `Cn1ccnc1C(O)(c1ccccc1)c1ccc(Cl)cc1Cl` (stereo not drawn) [Example 5, Phenyl-(2,4-dichlorophenyl)-[1-methylimidazolyl-(2)]-carbinol], the LD50 in series [1] was > 4000 mg/kg. Also, the change in vivo at 30 mg/kg in the series on serum lipid level (setting [11]) is -23%; with serum lipid level (setting [12]), -1%; in the series on serum lipid level (setting [14]), -9%; in the series on serum lipid level (setting [13]), -17%. Besides, the change in vivo at 100 mg/kg was -19% in the series with serum lipid level (setting [4]), -37% in the series on serum lipid level (setting [5]), -32% in the series on serum lipid level (setting [6]) and -35% in the series on serum lipid level (setting [7]).
For the compound `CC(O)(c1ccc(OC(F)(F)C(F)Cl)cc1)c1nccn1Cc1ccccc1` (stereo not drawn) [Example 10, 1-[p-(1,1,2-trifluoro-2-chloro-ethoxy)-phenyl]-1-[1-benzylimidazolyl-(2)]-ethanol], the LD50 in series [1] is > 4000 mg/kg. Besides, the change in vivo at 100 mg/kg was -36% with serum lipid level (setting [4]), -56% with serum lipid level (setting [5]), -21% with serum lipid level (setting [6]) and -26% with serum lipid level (setting [7]).
With `CCOC(=O)C(C)(C)Oc1ccc(Cl)cc1` [Clofibrate, 2-(p-chlorophenoxy)-isobutyric acid ethyl ester, reference compound], the median lethal dose (LD50) in series [1] was 2000 to 2500 mg/kg. Also, in the series on serum lipid level (setting [15]), the “change of Serum-Cholesterin (in words)” value is recorded as “ineffective”. In addition, the “change of Serum-triglycerides (in words)” value in the series with serum lipid level (setting [15]) was “ineffective”. The change in vivo at 30 mg/kg in the series with serum lipid level (setting [11]) is -5%; with serum lipid level (setting [12]) it was -4%; in the series with serum lipid level (setting [14]), -8%; with serum lipid level (setting [13]) it was -7%. Moreover, the change in vivo at 100 mg/kg in the series with serum lipid level (setting [4]) is -22%; with serum lipid level (setting [5]), -30%; with serum lipid level (setting [6]), -13%; in the series with serum lipid level (setting [7]), -30%. In addition, the “Inhibition of triton-hyperlipidemia, Serum-cholesterin (in words)” value in the series on triton-hyperlipidemia (10 mg/kg/day p.o.) is “ineffective”. Moreover, the “Inhibition of triton-hyperlipidemia, Serum-triglyceride (in words)” value in the series with triton-hyperlipidemia (10 mg/kg/day p.o.) was “ineffective”. In the series on triton-hyperlipidemia (100 mg/kg/day p.o.), the “Inhibition of triton-hyperlipidemia, Serum-cholesterin” value is -29%. In the series on triton-hyperlipidemia (100 mg/kg/day p.o.), the “Inhibition of triton-hyperlipidemia, Serum-triglyceride” value is -16%.
With `OC(c1ccccc1)(c1ncc[nH]1)c1ncc[nH]1` [Example 7, Bis-[imidazolyl-(2)]-phenyl-carbinol], the LD50 in series [1] is > 4000 mg/kg. In addition, the change in vivo at 100 mg/kg was -7% in the series with serum lipid level (setting [4]), -18% with serum lipid level (setting [5]) and -18% in the series with serum lipid level (setting [7]). Moreover, in series [3], the “solubility (in words)” value is given as “not soluble or poorly soluble only in the usual solvents”.
`CC(C)n1ccnc1C(C)(O)c1ccc(Cl)cc1` (stereo not drawn) [Example 8, Methyl-(p-chlorophenyl)-[1-isopropylimidazolyl-(2)]-carbinol]: in series [1], the LD50 is > 4000 mg/kg. In addition, the change in vivo at 100 mg/kg in the series with serum lipid level (setting [4]) was -14%; in the series on serum lipid level (setting [5]), -39%; with serum lipid level (setting [7]) it was -21%.
